Results as given in article PMC5334605, “Indolediketopiperazine Alkaloids from Eurotium cristatum EN-220, an Endophytic Fungus Isolated from the Marine Alga Sargassum thunbergii” (Marine Drugs, 2017).
≈ marks a conversion by molar mass, not a printed value.

Assays:
[1] = DPPH radical scavenging assay; details: for DPPH radical scavenging activity (IC50): positive control ascorbic acid
[2] = tested on: brine shrimp (Artemia salina); assay type: in vivo; details: for brine shrimp lethality (LD50): Artemia salina, n.a. = no activity; for lethal activity against brine shrimp: result in words
Panagrellus redivivus = test: Nematicidal assay; assay type: in vivo; details: for nematicidal activity (LD50): Panagrellus redivivus, n.a. = no activity; for nematicidal activity against Panagrellus redivivus: result in words
Magnaporthe grisea = test: microbe, parasite or virus in culture; assay type: cell-based; details: Pyricularia oryzae, read-out: MIC against Magnaporthe grisea
S. aureus = test: Antimicrobial broth microdilution assay; assay type: cell-based, Staphyloccocus aureus; details: Staphylococcus aureus, read-out: MIC against S. aureus

Row | Structure (SMILES) | DPPH radical scavenging activity (IC50) [1] [µg/mL] | brine shrimp lethality (LD50) [2] [µg/mL] | lethal activity against brine shrimp [2] | nematicidal activity (LD50) (Panagrellus redivivus) [µg/mL] | nematicidal activity against Panagrellus redivivus (Panagrellus redivivus) | MIC (Magnaporthe grisea) [µg/mL] | MIC (S. aureus) [µg/mL] | radical scavenging activity against DPPH radicals ([1]; result in words)
1 | O=C1O[C@H]([C@@H](O)CO)C(O)=C1O [Ascorbic Acid, ascorbic acid, reference compound] | 2.0 |  |  |  |  |  |  | 
2 | C=CC(C)(C)c1[nH]c2cc(CC=C(C)C)ccc2c1/C=C1\NC(=O)C(C)(OC)NC1=O (centres unmarked) [Compound 2, isovariecolorin I] | 20.6 | 19.4 | potent lethal activity | 110.3 | weak nematicidal effect |  |  | 
3 | C=CC(C)(C)c1[nH]c2c(CC=C(C)CO)cc(CC=C(C)C)cc2c1CC1NC(=O)C(C)NC1=O (centres unmarked) [Compound 3, 30-Hydroxyechinulin] |  | 138.1 | weaklethal activities |  |  |  |  | 
4 | C=CC(C)(C)c1[nH]c2c(CC=C(C)CO)cc(CC=C(C)C)cc2c1CC1NC(=O)C(C)NC1=O (centres unmarked) [Compound 4, 29-hydroxyechinulin] |  | 140.6 | weaklethal activities |  |  |  |  | 
5 | C=CC(C)(C)c1[nH]c2c(C[C@H](O)C(C)(C)O)cccc2c1/C=C1\NC(=O)[C@H](C)NC1=O [Compound 6, rubrumazine B] | 28.5 |  |  |  |  | 64 (≈ 150 µM) |  | 
6 | C=CC(C)(C)c1[nH]c2ccccc2c1/C=c1\[nH]c(=O)c(=C)[nH]c1=O [Compound 7, neoechinulin B] | 10.9 | 105.2 | weaklethal activities | >200 |  |  |  | 
7 | C=CC(C)(C)c1[nH]c2cc(CC=C(C)C)ccc2c1C=c1[nH]c(=O)c(=C)[nH]c1=O [Compound 8, neoechinulin C] | 12.1 | 70.1 |  | >200 |  |  |  | 
8 | C=CC(C)(C)c1[nH]c2c(CC=C(C)C)cc(CC=C(C)C)cc2c1C[C@@H]1NC(=O)C(=C)NC1=O [Compound 10, didehydroechinulin] | 13.3 | 27.1 | potent lethal activity | 126.4 | weak nematicidal effect |  |  | 
9 | C=CC(C)(C)c1[nH]c2c(CC=C(C)C)cc(CC=C(C)C)cc2c1C[C@@H]1NC(=O)[C@H](C)NC1=O [Compound 11, echinulin] | 13.8 |  | did not show any activity |  | did not show any activity |  | 256 (≈ 555 µM) | 
10 | C=CC(C)(C)c1[nH]c2c(CC=C(C)C)cc(CC=C(C)C)cc2c1C=C1NC(=O)C(C)NC1=O (centres unmarked) [Compound 12, dehydroechinulin] | 6.4 |  | did not show any activity |  | did not show any activity |  | 256 (≈ 557 µM) | potent radical scavenging activity
11 | C=CC(C)(C)c1[nH]c2ccccc2c1/C=C1\NC(=O)C(C)(OC)NC1=O (centres unmarked) [Compound 13, variecolorin H] | 18.7 |  |  |  |  |  | 256 (≈ 724 µM) | 
